Source: patent US20170007615A1, “Antibacterial Compounds” (priority 2014, published 2017)
≈ marks a conversion by molar mass, not a printed value. Where two headings read alike, the source gives them in different places.

What was measured:
E. coli (ATCC 25922) [1] = conditions: Table 3; PMB sub-inhibitory
E. coli (ATCC 25922) [2] = assay: microbe, parasite or virus in culture; conditions: Escherichia coli
[3] = system: P. aeruginosa (ATCC 27853); conditions: Table 5
[4] = system: A. baumannii (ATCC 19606); assay: microbe, parasite or virus in culture; conditions: Acinetobacter baumannii, ATCC19606, read-out: MIC Compound alone
S. aureus (ATCC 29213) = assay: Antibacterial activity (MIC), Gram-positive type strain; assay type: cell-based, Staphylococcus aureus; conditions: Staphylococcus aureus, ATCC29213; Table 13
E. cloaceae (ATCC 13047) = conditions: Table 6
[5] = system: P. aeruginosa drug resistant clinical isolates; assay: Antibacterial activity (MIC) against drug resistant clinical isolates, alone and with PMBN; assay type: cell-based; conditions: for MIC: Pseudomonas aeruginosa, read-out: MIC Compound alone
[6] = system: A. baumannii drug resistant clinical isolates; assay: as above; assay type: cell-based; conditions: for MIC: Acinetobacter baumannii, read-out: MIC Compound alone

MIC of Compound (μg/ml) in the presence of PMB (0.5 μg/ml) (E. coli (ATCC 25922) [1]): 0.12 µg/mL | MIC (E. coli (ATCC 25922) [2]; ATCC25922, read-out: MIC Compound alone, Table 1): 1 µg/mL (≈ 1.9 µM) | MIC (E. coli (ATCC 25922) [2]; ATCC25922, read-out: MIC Compound alone, Table 2): 1 µg/mL (≈ 1.9 µM) | MIC (E. coli (ATCC 25922) [2]; ATCC25922, read-out: MIC Compound alone, Table 3): 1 µg/mL (≈ 1.9 µM) | MIC of Compound (μg/ml) in the presence of PMBN (128 μg/ml) [3]: <=0.008 μg/ml | MIC [4]: 1 µg/mL (≈ 1.9 µM) | MIC (S. aureus (ATCC 29213)): ≤ 0.008 µg/mL | MIC of Compound (μg/ml) in the presence of PMBN (128 μg/ml) (E. cloaceae (ATCC 13047)): 0.25 µg/mL | MIC of Compound (μg/ml) in the presence of PMBN (128 μg/ml) ([5]; P. aeruginosa (MMX3007)): 0.03 µg/mL | MIC of Compound (μg/ml) in the presence of PMBN (128 μg/ml) ([5]; P. aeruginosa (MMX3022)): 0.03 µg/mL | MIC of Compound (μg/ml) in the presence of PMBN (128 μg/ml) ([5]; P. aeruginosa (MMX3025)): 0.03 µg/mL | MIC of Compound (μg/ml) in the presence of PMBN (128 μg/ml) ([5]; P. aeruginosa (MMX3026)): ≦0.008 μg/ml | MIC of Compound (μg/ml) in the presence of PMBN (128 μg/ml) ([5]; P. aeruginosa (MMX4700)): 0.12 µg/mL | MIC of Compound (μg/ml) in the presence of PMBN (128 μg/ml) ([5]; P. aeruginosa (NCTC13437)): 0.016 µg/mL | MIC ([5]; NCTC13437, P. aeruginosa (NCTC13437)): 16 µg/mL (≈ 30.4 µM) | MIC ([5]; P. aeruginosa (MMX3007)): > 16 µg/mL | MIC ([5]; P. aeruginosa (MMX3022)): 8 µg/mL (≈ 15.2 µM) | MIC ([5]; P. aeruginosa (MMX3025)): > 16 µg/mL | MIC ([5]; P. aeruginosa (MMX3026)): > 16 µg/mL | MIC ([5]; P. aeruginosa (MMX4700)): 16 µg/mL (≈ 30.4 µM) | MIC of Compound (μg/ml) in the presence of PMBN (128 μg/ml) ([6]; A. baumannii (MMX 2585)): 0.12 µg/mL | MIC of Compound (μg/ml) in the presence of PMBN (128 μg/ml) ([6]; A. baumannii (MMX 2598)): 0.06 µg/mL | MIC of Compound (μg/ml) in the presence of PMBN (128 μg/ml) ([6]; A. baumannii (MMX 2600)): 0.06 µg/mL | MIC of Compound (μg/ml) in the presence of PMBN (128 μg/ml) ([6]; A. baumannii (MMX 4405)): 0.12 µg/mL | MIC of Compound (μg/ml) in the presence of PMBN (128 μg/ml) ([6]; A. baumannii (MMX 4454)): 0.12 µg/mL | MIC of Compound (μg/ml) in the presence of PMBN (128 μg/ml) ([6]; A. baumannii (MMX 6331)): 0.06 µg/mL | MIC of Compound (μg/ml) in the presence of PMBN (128 μg/ml) ([6]; A. baumannii (NCTC13301)): 0.12 µg/mL | MIC of Compound (μg/ml) in the presence of PMBN (128 μg/ml) ([6]; A. baumannii (NCTC13302)): 0.03 µg/mL | MIC of Compound (μg/ml) in the presence of PMBN (128 μg/ml) ([6]; A. baumannii (NCTC13303)): 0.06 µg/mL | MIC of Compound (μg/ml) in the presence of PMBN (128 μg/ml) ([6]; A. baumannii (NCTC13304)): 0.03 µg/mL | MIC of Compound (μg/ml) in the presence of PMBN (128 μg/ml) ([6]; A. baumannii (NCTC13305)): 0.12 µg/mL | MIC of Compound (μg/ml) in the presence of PMBN (128 μg/ml) ([6]; A. baumannii (NCTC 13420)): 0.03 µg/mL | MIC of Compound (μg/ml) in the presence of PMBN (128 μg/ml) ([6]; A. baumannii (NCTC13421)): 0.03 µg/mL | MIC of Compound (μg/ml) in the presence of PMBN (128 μg/ml) ([6]; A. baumannii (NCTC13422)): 0.03 µg/mL | MIC of Compound (μg/ml) in the presence of PMBN (128 μg/ml) ([6]; A. baumannii (NCTC13424)): 0.03 µg/mL | MIC ([6]; A. baumannii (MMX 2585)): 4 µg/mL (≈ 7.61 µM) | MIC ([6]; A. baumannii (MMX 2598)): 2 µg/mL (≈ 3.8 µM) | MIC ([6]; A. baumannii (MMX 2600)): 2 µg/mL (≈ 3.8 µM) | MIC ([6]; A. baumannii (MMX 4405)): 4 µg/mL (≈ 7.61 µM) | MIC ([6]; A. baumannii (MMX 4454)): 1 µg/mL (≈ 1.9 µM) | MIC ([6]; A. baumannii (MMX 6331)): 4 µg/mL (≈ 7.61 µM) | MIC ([6]; NCTC13301, A. baumannii (NCTC13301)): 4 µg/mL (≈ 7.61 µM) | MIC ([6]; NCTC13302, A. baumannii (NCTC13302)): 1 µg/mL (≈ 1.9 µM) | MIC ([6]; NCTC13303, A. baumannii (NCTC13303)): 2 µg/mL (≈ 3.8 µM) | MIC ([6]; NCTC13304, A. baumannii (NCTC13304)): 1 µg/mL (≈ 1.9 µM) | MIC ([6]; NCTC13305, A. baumannii (NCTC13305)): 2 µg/mL (≈ 3.8 µM) | MIC ([6]; NCTC13420, A. baumannii (NCTC 13420)): 1 µg/mL (≈ 1.9 µM) | MIC ([6]; NCTC13421, A. baumannii (NCTC13421)): 2 µg/mL (≈ 3.8 µM) | MIC ([6]; NCTC13422, A. baumannii (NCTC13422)): 4 µg/mL (≈ 7.61 µM) | MIC ([6]; NCTC13424, A. baumannii (NCTC13424)): 1 µg/mL (≈ 1.9 µM)
SMILES: CCNC(=O)Nc1nc2cc(-c3cnc(NS(=O)(=O)C(C)(C)C)nc3)cc(-c3ccc(C)cn3)c2s1 [Compound A-13, 1-[5-[2-(tert-Butylsulfonylamino)pyrimidin-5-yl]-7-(5-methyl-2-pyridyl)-1,3-benzothiazol-2-yl]-3-ethyl-urea]
